Consider 40 compounds from patent publication EP2818472A1, “Imidazo[4,5-c]pyridine and pyrrolo[3,2-c]pyridine compounds as G-protein-coupled receptor kinase 5 (GRK5) modulators” (Max-Planck-Gesellschaft zur Förderung der Wissenschaften …, priority 2013, dated 2014).

The test system of this assay is beta-TC6 cells. In words: Insulin HTRF assay (relative activity Ar) in beta-TC6 cells. The format is cell-based, mouse. Conditions: Mus musculus, Beta-TC6, 4 h, insulin HTRF, supernatant of beta-TC6 cells, incubation with test compound at 37°C for 2, 3, 4h; read-out: Ar (relative activity). Put shortly:
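beta-TC6 cells (15k/well, seeded 24 or 48 h) washed, then exposed to compound in induction buffer (0.5% DMSO final) for 2, 3 or 4 h at 37°C.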

On to `CC(=O)c1cccc(Nc2cc3[nH]c(-c4cncn4C)cc3cn2)c1` [Compound 107, 1-[3-[[2-(3-methylimidazol-4-yl)-1H-pyrrolo[3,2-c]pyridin-6-yl]amino]phenyl]ethanone], for which the Emax fell in the range of 50 to 100%.

For `Cn1c(-c2cccnc2)cc2cnc(Nc3ccc4c(c3)OCCO4)cc21` [Compound 84, N-(2,3-dihydro-1,4-benzodioxin-6-yl)-1-methyl-2-(3-pyridyl)pyrrolo[3,2-c]pyridin-6-amine], the Emax was 50 to 100%.

For `COc1ccc(OC)c(CCNc2nc3cnc(-c4ccc5c(c4)OCO5)cc3n2C)c1` [Compound 816, 6-(1,3-benzodioxol-5-yl)-N-[2-(2,5-dimethoxyphenyl)ethyl]-1-methyl-imidazo[4,5-c]pyridin-2-amine], the Emax is 0 to 30%.

In the case of `Cn1cc(-c2cc3cnc(Nc4cccc(OC(F)(F)F)c4)cc3n2C)cn1` [Compound 146, 1-methyl-2-(1-methylpyrazol-4-yl)-N-[3-(trifluoromethoxy)phenyl]pyrrolo[3,2-c]pyridin-6-amine], the Emax fell in the range of 30 to 50%.

With `CC(=O)Nc1ccc(Nc2nccc3c2cc(-c2ccc(C(=O)N(C)C)cc2)n3C)cc1` [Compound 211, 4-[4-(4-acetamidoanilino)-1-methyl-pyrrolo[3,2-c]pyridin-2-yl]-N,N-dimethyl-benzamide], the Emax fell in the range of 30 to 50%.

`COc1cccc(Nc2cc3c(cn2)cc(-c2cnn(C)c2)n3C)c1` [Compound 127, N-(3-methoxyphenyl)-1-methyl-2-(1-methylpyrazol-4-yl)pyrrolo[3,2-c]pyridin-6-amine]: the Emax lay in the range of 50 to 100%.

Consider `CNc1nc2cnc(-c3cccc(C(F)(F)F)c3)cc2n1C` [Compound 831, N,1-dimethyl-6-[3-(trifluoromethyl)phenyl]imidazo[4,5-c]pyridin-2-amine], for which the Emax lay within 0 to 30%.

Consider `COc1ccc(Nc2cc3[nH]c(-c4cn[nH]c4)cc3cn2)cc1OC` [Compound 111, N-(3,4-dimethoxyphenyl)-2-(1H-pyrazol-4-yl)-1H-pyrrolo[3,2-c]pyridin-6-amine], for which the Emax was greater than 100%.

On to `CNc1nc2cnc(Nc3ccc(OC)c(OC)c3)cc2n1CCN1CCOCC1` [Compound 555, N6-(3,4-dimethoxyphenyl)-N2-methyl-1-(2-morpholinoethyl)imidazo[4,5-c]pyridine-2,6-diamine], for which the Emax fell in the range of 30 to 50%.

As to `c1ccc(-c2nc3c(NCC4CC4)nccc3[nH]2)cc1` [Compound 339, N-(cyclopropylmethyl)-2-phenyl-1H-imidazo[4,5-c]pyridin-4-amine], the Emax was in the range of 30 to 50%.

With `COc1ccc(CNc2nc3cnc(Nc4ccccc4)cc3n2C)cc1OC` [Compound 604, N2-[(3,4-dimethoxyphenyl)methyl]-1-methyl-N6-phenyl-imidazo[4,5-c]pyridine-2,6-diamine], the Emax fell in the range of 30 to 50%.

Turning to `CNc1nc2cnc(Nc3ccc(OC)cc3OC)cc2n1CC1CC1` [Compound 569, 1-(cyclopropylmethyl)-N6-(2,4-dimethoxyphenyl)-N2-methyl-imidazo[4,5-c]pyridine-2,6-diamine], the Emax fell in the range of 30 to 50%.

As to `CN(C)c1cccc(Nc2cc3[nH]c(-c4cncn4C)cc3cn2)c1` [Compound 104, N1,N1-dimethyl-N3-[2-(3-methylimidazol-4-yl)-1H-pyrrolo[3,2-c]pyridin-6-yl]benzene-1,3-diamine], the Emax is 50 to 100%.

For `CNc1nc2cnc(-c3cccc(NS(C)(=O)=O)c3)cc2n1-c1cccc(F)c1` [Compound 768, N-[3-[1-(3-fluorophenyl)-2-(methylamino)imidazo[4,5-c]pyridin-6-yl]phenyl]methanesulfonamide], the Emax lay in the range of 0 to 30%.

As to `Cn1c(Nc2ccccc2)nc2cnc(Nc3ccccc3)cc21` [Compound 634, 1-methyl-N2,N6-diphenyl-imidazo[4,5-c]pyridine-2,6-diamine], the Emax was 50 to 100%.

On to `CC(C)c1cccc(Nc2nccc3c2cc(-c2ccc(C(=O)N(C)C)cc2)n3C)c1` [Compound 224, 4-[4-(3-isopropylanilino)-1-methyl-pyrrolo[3,2-c]pyridin-2-yl]-N,N-dimethyl-benzamide], for which the Emax was in the range of 0 to 30%.

On to `Cn1cc(-c2cc3cnc(N4CCOCC4)cc3n2C)cn1` [Compound 145, 4-[1-methyl-2-(1-methylpyrazol-4-yl)pyrrolo[3,2-c]pyridin-6-yl]morpholine], for which the Emax is greater than 100%.

Take `Cn1c(NCC2CC2)nc2cnc(Nc3ccc4c(c3)OCO4)cc21` [Compound 598, N6-(1,3-benzodioxol-5-yl)-N2-(cyclopropylmethyl)-1-methyl-imidazo[4,5-c]pyridine-2,6-diamine]: the Emax fell in the range of 30 to 50%.

For `COc1ccc(Nc2cc3c(cn2)cc(-c2cccnc2)n3C)cc1OC` [Compound 85, N-(3,4-dimethoxyphenyl)-1-methyl-2-(3-pyridyl)pyrrolo[3,2-c]pyridin-6-amine], the Emax lay within 50 to 100%.

Consider `COCCCNc1nccc2[nH]c(-c3ccc(OC)cc3)nc12` [Compound 401, 2-(4-methoxyphenyl)-N-(3-methoxypropyl)-1H-imidazo[4,5-c]pyridin-4-amine], for which the Emax was in the range of 30 to 50%.

With `COc1ccc(Nc2nccc3c2cc(-c2ccc(C(=O)N(C)C)cc2)n3C)cn1` [Compound 216, 4-[4-[(6-methoxy-3-pyridyl)amino]-1-methyl-pyrrolo[3,2-c]pyridin-2-yl]-N,N-dimethyl-benzamide], the Emax was 50 to 100%.

Take `COc1cc(Nc2nccc3c2cc(-c2ccc(C(=O)N(C)C)cc2)n3C)cc(C(F)(F)F)c1` [Compound 220, N,N-dimethyl-4-[1-methyl-4-(3-methoxy-5-(trifuloromethyl)phenylamino)pyrrolo[3,2-c]pyridin-2-yl]benzamide]: the Emax lay within 0 to 30%.

For the compound `CC(=O)Nc1ccc(Nc2cc3c(cn2)cc(-c2cnn(C)c2)n3C)cc1` [Compound 126, N-[4-[[1-methyl-2-(1-methylpyrazol-4-yl)pyrrolo[3,2-c]pyridin-6-yl]amino]phenyl]acetamide], the Emax is 50 to 100%.

As for `Fc1ccc(Nc2cc3[nH]c(-c4ccccc4)cc3cn2)cc1` [Compound 179, N-(4-fluorophenyl)-2-phenyl-1H-pyrrolo[3,2-c]pyridin-6-amine], the Emax was in the range of 30 to 50%.

With `COc1ccc(Nc2cc3c(cn2)nc(-c2ccc(OC)c(OC)c2)n3C)c(C)c1` [Compound 720, 2-(3,4-dimethoxyphenyl)-N-(4-methoxy-2-methyl-phenyl)-1-methyl-imidazo[4,5-c]pyridin-6-amine], the Emax is 30 to 50%.

As to `c1ccc(-c2cc3cnc(Nc4ccc(N5CCOCC5)cc4)cc3[nH]2)cc1` [Compound 176, N-(4-morpholinophenyl)-2-phenyl-1H-pyrrolo[3,2-c]pyridin-6-amine], the Emax lay within 50 to 100%.

As to `COc1ccc(Nc2cc3c(cn2)cc(-c2ccc(C(=O)N(C)C)cc2)n3C)cc1O` [Compound 54, 4-[6-(3-hydroxy-4-methoxy-anilino)-1-methyl-pyrrolo[3,2-c]pyridin-2-yl]-N,N-dimethyl-benzamide], the Emax was 50 to 100%.

As to `Cn1c(-c2ccsc2)cc2c(Nc3ccc4c(c3)OCO4)nccc21` [Compound 283, N-(1,3-benzodioxol-5-yl)-1-methyl-2-(3-thienyl)pyrrolo[3,2-c]pyridin-4-amine], the Emax lay within 30 to 50%.

With `COc1ccc(-c2nc3c(Nc4cccc(S(C)(=O)=O)c4)nccc3[nH]2)cc1OC` [Compound 351, 2-(3,4-dimethoxyphenyl)-N-(3-methylsulfonylphenyl)-1H-imidazo[4,5-c]pyridin-4-amine], the Emax is 50 to 100%.

Take `COc1ccc(Nc2cc3[nH]c(-c4cnn(C)c4)cc3cn2)cc1OC` [Compound 123, N-(3,4-dimethoxyphenyl)-2-(1-methylpyrazol-4-yl)-1H-pyrrolo[3,2-c]pyridin-6-amine]: the Emax is greater than 100%.

As to `COc1cccc(-c2nc3c(Nc4cccc(F)c4)nccc3[nH]2)c1F` [Compound 481, 2-(2-fluoro-3-methoxy-phenyl)-N-(3-fluorophenyl)-1H-imidazo[4,5-c]pyridin-4-amine], the Emax lay in the range of 30 to 50%.

On to `COc1cc(Nc2cc3c(cn2)nc(-c2ccncc2)n3C)cc(OC)c1OC` [Compound 724, 1-methyl-2-(4-pyridyl)-N-(3,4,5-trimethoxyphenyl)imidazo[4,5-c]pyridin-6-amine], for which the Emax was in the range of 30 to 50%.

For the compound `COc1ccc(Nc2cc3c(cn2)ncn3Cc2ccco2)cc1` [Compound 693, 1-(2-furylmethyl)-N-(4-methoxyphenyl)imidazo[4,5-c]pyridin-6-amine], the Emax was 50 to 100%.

On to `CS(=O)(=O)c1ccc(Nc2nccc3[nH]c(-c4ccsc4)cc23)cc1` [Compound 268, N-(4-methylsulfonylphenyl)-2-(3-thienyl)-1H-pyrrolo[3,2-c]pyridin-4-amine], for which the Emax was 50 to 100%.

On to `NC(=O)c1ccc(Nc2nccc3[nH]c(-c4ccccc4)cc23)cc1` [Compound 318, 4-[(2-phenyl-1H-pyrrolo[3,2-c]pyridin-4-yl)amino]benzamide], for which the Emax is greater than 100%.

Take `COc1ccc(Nc2nccc3[nH]c(-c4ccncc4)nc23)cc1` [Compound 427, N-(4-methoxyphenyl)-2-(4-pyridyl)-1H-imidazo[4,5-c]pyridin-4-amine]: the Emax was in the range of 50 to 100%.

`CN(C)C(=O)c1ccc(-c2cc3cnc(Nc4ccccn4)cc3n2C)cc1` [Compound 51, N,N-dimethyl-4-[1-methyl-6-(2-pyridylamino)pyrrolo[3,2-c]pyridin-2-yl]benzamide]: the Emax lay within 30 to 50%.

As for `COc1cccc(-c2cc3c(Nc4cccnc4)nccc3[nH]2)c1` [Compound 308, 2-(3-methoxyphenyl)-N-(3-pyridyl)-1H-pyrrolo[3,2-c]pyridin-4-amine], the Emax is 50 to 100%.

With `FC(F)(F)c1cccc(-c2cc3c(cn2)ncn3-c2ccccc2)c1` [Compound 752, 1-phenyl-6-[3-(trifluoromethyl)phenyl]imidazo[4,5-c]pyridine], the Emax fell in the range of 0 to 30%.

Turning to `COc1cc(OC)cc(-c2cc3c(N4CCOCC4)nccc3n2C)c1` [Compound 192, 4-[2-(3,5-dimethoxyphenyl)-1-methyl-pyrrolo[3,2-c]pyridin-4-yl]morpholine], the Emax was 0 to 30%.
